Measured values taken from patent US20230085307A1, “PYRIDAZINONE COMPOUND AND HERBICIDE” (NISSAN CHEMICAL CORPORATION, priority 2019, published 2023).

Tests used:
[1] = system: late watergrass; assay: Test Example 1: herbicidal activity, application before weed generation under submerged conditions (Table 16, symbol A); format: in vivo, late watergrass (Echinochloa oryzicola); details: 320 g/ha applied herbicide
Procedure, shortened: (§1)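 Submerged Wagner pots (alluvial soil, 4 cm water) sown with weed seeds and planted with 2.5-leaf rice seedlings; emulsifiable concentrate diluted in water applied to water surface on sowing day. Held in greenhouse at 25-30 °C; injury scored 0-5 by herbicidal rate after three weeks.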

[2] = system: Japanese bulrush; assay: Test Example 1: herbicidal activity, application before weed generation under submerged conditions (Table 16, symbol B); format: in vivo, Japanese bulrush (Schoenoplectus juncoides); details: 320 g/ha applied herbicide
Procedure, shortened: as §1

[3] = system: oval-leafed pondweed; assay: Test Example 1: herbicidal activity, application before weed generation under submerged conditions (Table 16, symbol C); format: in vivo, oval-leafed pondweed (Monochoria vaginalis); details: 320 g/ha applied herbicide
Procedure, shortened: as §1

[4] = system: barnyard grass; assay: Test Example 3: herbicidal effect by foliage application, Wagner pot (Table 18, symbol H); format: in vivo, barnyard grass (Echinochloa crus-galli); details: 320 g/ha
Procedure, shortened: (§2)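 Plants were sown in alluvial soil held under 0.1–0.5 cm standing water and grown 14 days in a greenhouse at 25–30 °C. An emulsifiable formulation, water-diluted to the set dose, was then sprayed onto the foliage, and effects were scored three weeks later using previously defined criteria.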

[5] = system: Chinese sprangletop; assay: Test Example 3: herbicidal effect by foliage application, Wagner pot (Table 18, symbol D); format: in vivo, chinese sprangletop (Leptochloa chinensis); details: 320 g/ha
Procedure, shortened: as §2

[6] = system: rice flat sedge; assay: Test Example 3: herbicidal effect by foliage application, Wagner pot (Table 18, symbol E); format: in vivo, rice flat sedge (Cyperus iria); details: 320 g/ha
Procedure, shortened: as §2

[7] = system: southern crabgrass; assay: Test Example 4: herbicidal effect by soil treatment (Table 19, symbol F); format: in vivo, southern crabgrass (Digitaria ciliaris)
Procedure, shortened: (§3)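 Scoring uses the grading scale of an earlier test, three weeks post-application. Treatment consists of spraying a diluted emulsion formulation across the surface of sterilized diluvial soil in which seeds are buried near 1.5 cm deep; boxes are kept in a greenhouse between 25° C. and 30° C.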

[8] = system: green foxtail; assay: Test Example 4: herbicidal effect by soil treatment (Table 19, symbol G); format: in vivo, green foxtail (Setaria viridis)
Procedure, shortened: as §3

[9] = system: barnyard grass; assay: Test Example 4: herbicidal effect by soil treatment (Table 19, symbol H); format: in vivo, barnyard grass (Echinochloa crus-galli)
Procedure, shortened: as §3

[10] = system: wild oat; assay: Test Example 4: herbicidal effect by soil treatment (Table 19, symbol I); format: in vivo, wild oat (Avena fatua)
Procedure, shortened: as §3

[11] = system: blackgrass; assay: Test Example 4: herbicidal effect by soil treatment (Table 19, symbol J); format: in vivo, blackgrass (Alopecurus myosuroides); details: amount of applied herbicide 320 g/ha
Procedure, shortened: as §3

[12] = system: Italian ryegrass; assay: Test Example 4: herbicidal effect by soil treatment (Table 19, symbol K); format: in vivo, Italian ryegrass (Lolium multiflorum)
Procedure, shortened: as §3

[13] = system: velvetleaf; assay: Test Example 4: herbicidal effect by soil treatment (Table 19, symbol M); format: in vivo, velvetleaf (Abutilon theophrasti)
Procedure, shortened: as §3

[14] = system: redroot pigweed; assay: Test Example 4: herbicidal effect by soil treatment (Table 19, symbol N); format: in vivo, redroot pigweed (Amaranthus retroflexus)
Procedure, shortened: as §3

[15] = system: lambsquarters; assay: Test Example 4: herbicidal effect by soil treatment (Table 19, symbol O); format: in vivo, lambsquarters (Chenopodium album)
Procedure, shortened: as §3

[16] = system: chickweed; assay: Test Example 4: herbicidal effect by soil treatment (Table 19, symbol P); format: in vivo, common chickweed (Stellaria media)
Procedure, shortened: as §3

[17] = system: persian speedwell; assay: Test Example 4: herbicidal effect by soil treatment (Table 19, symbol R); format: in vivo, Persian speedwell (Veronica persica)
Procedure, shortened: as §3

[18] = system: southern crabgrass; assay: Test Example 5: herbicidal effect by foliage application, plastic box (Table 20, symbol F); format: in vivo, southern crabgrass (Digitaria ciliaris); details: foliage application, three weeks after application
Procedure, shortened: (§4)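 Post-emergence foliar test in sterilized diluvial soil. Compound applied as water-diluted emulsion at a predetermined rate to 14-day-old plants; evaluation at three weeks.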

[19] = system: green foxtail; assay: Test Example 5: herbicidal effect by foliage application, plastic box (Table 20, symbol G); format: in vivo, green foxtail (Setaria viridis); details: foliage application, three weeks after application
Procedure, shortened: as §4

[20] = system: barnyard grass; assay: Test Example 5: herbicidal effect by foliage application, plastic box (Table 20, symbol H); format: in vivo, barnyard grass (Echinochloa crus-galli); details: foliage application, three weeks after application
Procedure, shortened: as §4

[21] = system: wild oat; assay: Test Example 5: herbicidal effect by foliage application, plastic box (Table 20, symbol I); format: in vivo, wild oat (Avena fatua); details: foliage application, three weeks after application
Procedure, shortened: as §4

[22] = system: blackgrass; assay: Test Example 5: herbicidal effect by foliage application, plastic box (Table 20, symbol J); format: in vivo, blackgrass (Alopecurus myosuroides); details: foliage application, three weeks after application
Procedure, shortened: as §4

[23] = system: Italian ryegrass; assay: Test Example 5: herbicidal effect by foliage application, plastic box (Table 20, symbol K); format: in vivo, Italian ryegrass (Lolium multiflorum); details: foliage application, three weeks after application
Procedure, shortened: as §4

[24] = system: windgrass; assay: Test Example 5: herbicidal effect by foliage application, plastic box (Table 20, symbol L); format: in vivo, windgrass (Apera spica-venti); details: foliage application, three weeks after application
Procedure, shortened: as §4

[25] = system: velvetleaf; assay: Test Example 5: herbicidal effect by foliage application, plastic box (Table 20, symbol M); format: in vivo, velvetleaf (Abutilon theophrasti); details: foliage application, three weeks after application
Procedure, shortened: as §4

[26] = system: redroot pigweed; assay: Test Example 5: herbicidal effect by foliage application, plastic box (Table 20, symbol N); format: in vivo, redroot pigweed (Amaranthus retroflexus); details: foliage application, three weeks after application
Procedure, shortened: as §4

[27] = system: lambsquarters; assay: Test Example 5: herbicidal effect by foliage application, plastic box (Table 20, symbol O); format: in vivo, lambsquarters (Chenopodium album); details: foliage application, three weeks after application
Procedure, shortened: as §4

[28] = system: chickweed; assay: Test Example 5: herbicidal effect by foliage application, plastic box (Table 20, symbol P); format: in vivo, common chickweed (Stellaria media); details: foliage application, three weeks after application
Procedure, shortened: as §4

[29] = system: persian speedwell; assay: Test Example 5: herbicidal effect by foliage application, plastic box (Table 20, symbol R); format: in vivo, Persian speedwell (Veronica persica); details: foliage application, three weeks after application
Procedure, shortened: as §4

[30] = system: windgrass; assay: Test Example 4: herbicidal effect by soil treatment (Table 19, symbol L); format: in vivo, windgrass (Apera spica-venti); details: AAH 320 g/ha
Procedure, shortened: as §3

[31] = amount of applied herbicide 320 g/ha

CCOc1ccccc1-c1sc2ccccc2c1-c1c(O)c(C)nn(C)c1=O [1-011]
Herbicidal effect on A: late watergrass (grade 0-5) [1]: 5 (Herbicidal rate of 90% or more (almost completely withered)) | Herbicidal effect on B: Japanese bulrush (grade 0-5) [2]: 0 (Herbicidal rate of 5% or less (almost no effect)) | Herbicidal effect on C: oval-leafed pondweed (grade 0-5) [3]: 0 (Herbicidal rate of 5% or less (almost no effect)) | herbicidal effect on H (barnyard grass), rating 0-5 [4]: 5 (Herbicidal rate of 90% or more (almost completely withered)) | herbicidal effect on D (Chinese sprangletop), rating 0-5 [5]: 3 (Herbicidal rate of 40% or more and less than 70%) | herbicidal effect on E (rice flat sedge), rating 0-5 [6]: 5 (Herbicidal rate of 90% or more (almost completely withered)) | herbicidal effect rating, F: southern crabgrass [7, 31]: 3 (Herbicidal rate of 40% or more and less than 70%) | herbicidal effect rating, G: green foxtail [8, 31]: 5 (Herbicidal rate of 90% or more (almost completely withered)) | herbicidal effect rating, H: barnyard grass [9, 31]: 5 (Herbicidal rate of 90% or more (almost completely withered)) | herbicidal effect rating, I: wild oat [10, 31]: 2 (Herbicidal rate of 20% or more and less than 40%) | herbicidal effect rating, J: blackgrass [11]: 4 (Herbicidal rate of 70% or more and less than 90%) | herbicidal effect rating, K: Italian ryegrass [12, 31]: 3 (Herbicidal rate of 40% or more and less than 70%) | herbicidal effect rating, M: velvetleaf [13, 31]: 0 (Herbicidal rate of 5% or less (almost no effect)) | herbicidal effect rating, N: redroot pigweed [14, 31]: 4 (Herbicidal rate of 70% or more and less than 90%) | herbicidal effect rating, O: lambsquarters [15, 31]: 4 (Herbicidal rate of 70% or more and less than 90%) | herbicidal effect rating, P: chickweed [16, 31]: 5 (Herbicidal rate of 90% or more (almost completely withered)) | herbicidal effect rating, R: persian speedwell [17, 31]: 5 (Herbicidal rate of 90% or more (almost completely withered)) | herbicidal effect grade, F: southern crabgrass ([18]; 320 g/ha): 5 (Herbicidal rate of 90% or more (almost completely withered)) | herbicidal effect grade, G: green foxtail ([19]; 320 g/ha): 5 (Herbicidal rate of 90% or more (almost completely withered)) | herbicidal effect grade, H: barnyard grass ([20]; 320 g/ha): 5 (Herbicidal rate of 90% or more (almost completely withered)) | herbicidal effect grade, I: wild oat ([21]; 320 g/ha): 4 (Herbicidal rate of 70% or more and less than 90%) | herbicidal effect grade, J: blackgrass ([22]; 320 g/ha): 5 (Herbicidal rate of 90% or more (almost completely withered)) | herbicidal effect grade, K: Italian ryegrass ([23]; 320 g/ha): 4 (Herbicidal rate of 70% or more and less than 90%) | herbicidal effect grade, L: windgrass ([24]; 320 g/ha): 4 (Herbicidal rate of 70% or more and less than 90%) | herbicidal effect grade, M: velvetleaf ([25]; 320 g/ha): 3 (Herbicidal rate of 40% or more and less than 70%) | herbicidal effect grade, N: redroot pigweed ([26]; 320 g/ha): 5 (Herbicidal rate of 90% or more (almost completely withered)) | herbicidal effect grade, O: lambsquarters ([27]; 320 g/ha): 2 (Herbicidal rate of 20% or more and less than 40%) | herbicidal effect grade, P: chickweed ([28]; 320 g/ha): 5 (Herbicidal rate of 90% or more (almost completely withered)) | herbicidal effect grade, R: persian speedwell ([29]; 320 g/ha): 5 (Herbicidal rate of 90% or more (almost completely withered))

CCCC(=O)Oc1c(C)nn(C)c(=O)c1-c1c(-c2ccccc2OCOC)sc2ccccc12 [1-115]
Herbicidal effect on A: late watergrass (grade 0-5) [1]: 2 (Herbicidal rate of 20% or more and less than 40%) | Herbicidal effect on B: Japanese bulrush (grade 0-5) [2]: 0 (Herbicidal rate of 5% or less (almost no effect)) | Herbicidal effect on C: oval-leafed pondweed (grade 0-5) [3]: 2 (Herbicidal rate of 20% or more and less than 40%) | herbicidal effect on H (barnyard grass), rating 0-5 [4]: 4 (Herbicidal rate of 70% or more and less than 90%) | herbicidal effect on D (Chinese sprangletop), rating 0-5 [5]: 2 (Herbicidal rate of 20% or more and less than 40%) | herbicidal effect on E (rice flat sedge), rating 0-5 [6]: 2 (Herbicidal rate of 20% or more and less than 40%) | F: southern crabgrass, herbicidal effect rating ([7]; AAH 320 g/ha): 0 (Herbicidal rate of 5% or less (almost no effect)) | G: green foxtail, herbicidal effect rating ([8]; AAH 320 g/ha): 0 (Herbicidal rate of 5% or less (almost no effect)) | H: barnyard grass, herbicidal effect rating ([9]; AAH 320 g/ha): 2 (Herbicidal rate of 20% or more and less than 40%) | I: wild oat, herbicidal effect rating ([10]; AAH 320 g/ha): 0 (Herbicidal rate of 5% or less (almost no effect)) | K: Italian ryegrass, herbicidal effect rating ([12]; AAH 320 g/ha): 0 (Herbicidal rate of 5% or less (almost no effect)) | L: windgrass, herbicidal effect rating [30]: 0 (Herbicidal rate of 5% or less (almost no effect)) | M: velvetleaf, herbicidal effect rating ([13]; AAH 320 g/ha): 0 (Herbicidal rate of 5% or less (almost no effect)) | N: redroot pigweed, herbicidal effect rating ([14]; AAH 320 g/ha): 3 (Herbicidal rate of 40% or more and less than 70%) | O: lambsquarters, herbicidal effect rating ([15]; AAH 320 g/ha): 0 (Herbicidal rate of 5% or less (almost no effect)) | P: chickweed, herbicidal effect rating ([16]; AAH 320 g/ha): 0 (Herbicidal rate of 5% or less (almost no effect)) | R: persian speedwell, herbicidal effect rating ([17]; AAH 320 g/ha): 0 (Herbicidal rate of 5% or less (almost no effect)) | F: southern crabgrass, herbicidal effect ([18]; AAH 320 g/ha): 4 (Herbicidal rate of 70% or more and less than 90%) | G: green foxtail, herbicidal effect ([19]; AAH 320 g/ha): 4 (Herbicidal rate of 70% or more and less than 90%) | H: barnyard grass, herbicidal effect ([20]; AAH 320 g/ha): 2 (Herbicidal rate of 20% or more and less than 40%) | I: wild oat, herbicidal effect ([21]; AAH 320 g/ha): 2 (Herbicidal rate of 20% or more and less than 40%) | J: blackgrass, herbicidal effect ([22]; AAH 320 g/ha): 4 (Herbicidal rate of 70% or more and less than 90%) | K: Italian ryegrass, herbicidal effect ([23]; AAH 320 g/ha): 0 (Herbicidal rate of 5% or less (almost no effect)) | L: windgrass, herbicidal effect ([24]; AAH 320 g/ha): 4 (Herbicidal rate of 70% or more and less than 90%) | M: velvetleaf, herbicidal effect ([25]; AAH 320 g/ha): 3 (Herbicidal rate of 40% or more and less than 70%) | N: redroot pigweed, herbicidal effect ([26]; AAH 320 g/ha): 5 (Herbicidal rate of 90% or more (almost completely withered)) | O: lambsquarters, herbicidal effect ([27]; AAH 320 g/ha): 2 (Herbicidal rate of 20% or more and less than 40%) | P: chickweed, herbicidal effect ([28]; AAH 320 g/ha): 5 (Herbicidal rate of 90% or more (almost completely withered)) | R: persian speedwell, herbicidal effect ([29]; AAH 320 g/ha): 2 (Herbicidal rate of 20% or more and less than 40%)
